The source made the active and inactive calls. How the calls were made is not given here.
System: rodent lifetime carcinogenesis bioassay, tumor incidence TD50
Assay: carcinogenic potency in animals, long-term in vivo studies, CPDB compilation (AID 1745844)

ClC#CCl
active: TD50 (mouse, strain NMRI, females, inhaled, site: Harderian gland, lesion: cystadenoma, dosed 52 weeks, study length 98 weeks) 3.02 mg/kg/day | TD50 (mouse, strain NMRI, females, inhaled, site: Harderian gland, lesion: cystadenoma, dosed 78 weeks, study length 119 weeks) 0.55 mg/kg/day | TD50 (mouse, strain NMRI, females, inhaled, site: Harderian gland, lesion: cystadenoma, dosed 78 weeks, study length 129 weeks) 0.499 mg/kg/day | TD50 (mouse, strain NMRI, females, inhaled, site: kidney, lesion: cystadenoma, dosed 52 weeks, study length 98 weeks) 1.03 mg/kg/day | TD50 (mouse, strain NMRI, females, inhaled, site: kidney, lesion: cystadenoma, dosed 78 weeks, study length 119 weeks) 1.08 mg/kg/day | TD50 (mouse, strain NMRI, females, inhaled, site: kidney, lesion: cystadenoma, dosed 78 weeks, study length 129 weeks) 7.8 mg/kg/day | carcinogen call (mouse, strain NMRI, males, inhaled, site: Harderian gland, lesion: cystadenoma, dosed 52 weeks, study length 92 weeks) positive | TD50 (mouse, strain NMRI, males, inhaled, site: Harderian gland, lesion: cystadenoma, dosed 78 weeks, study length 118 weeks) 0.687 mg/kg/day | TD50 (mouse, strain NMRI, males, inhaled, site: Harderian gland, lesion: cystadenoma, dosed 78 weeks, study length 127 weeks) 1.01 mg/kg/day | TD50 (mouse, strain NMRI, males, inhaled, site: kidney, lesion: cystadenocarcinoma, dosed 52 weeks, study length 92 weeks) 3.89 mg/kg/day | TD50 (mouse, strain NMRI, males, inhaled, site: kidney, lesion: cystadenocarcinoma, dosed 78 weeks, study length 118 weeks) 4.52 mg/kg/day | TD50 (mouse, strain NMRI, males, inhaled, site: kidney, lesion: cystadenocarcinoma, dosed 78 weeks, study length 127 weeks) 0.501 mg/kg/day | TD50 (mouse, strain NMRI, males, inhaled, site: kidney, lesion: cystadenoma, dosed 52 weeks, study length 92 weeks) 0.486 mg/kg/day | TD50 (mouse, strain NMRI, males, inhaled, site: kidney, lesion: cystadenoma, dosed 78 weeks, study length 118 weeks) 0.769 mg/kg/day | TD50 (mouse, strain NMRI, males, inhaled, site: kidney, lesion: cystadenoma, dosed 78 weeks, study length 127 weeks) 0.466 mg/kg/day | TD50 (rat, strain Wistar, females, inhaled, site: all sites, lesion: malignant lymphoma, dosed 78 weeks, study length 150 weeks) 3.86 mg/kg/day | TD50 (rat, strain Wistar, females, inhaled, site: kidney, lesion: cystadenoma, dosed 78 weeks, study length 150 weeks) 11.5 mg/kg/day | TD50 (rat, strain Wistar, females, inhaled, site: liver, lesion: cholangioma, dosed 78 weeks, study length 150 weeks) 3.86 mg/kg/day | TD50 (rat, strain Wistar, females, inhaled, site: liver, lesion: hepatocellular adenoma, dosed 78 weeks, study length 150 weeks) 17.5 mg/kg/day | TD50 (rat, strain Wistar, males, inhaled, site: kidney, lesion: cystadenocarcinoma, dosed 78 weeks, study length 157 weeks) 26.2 mg/kg/day | TD50 (rat, strain Wistar, males, inhaled, site: kidney, lesion: cystadenoma, dosed 78 weeks, study length 157 weeks) 3.34 mg/kg/day | TD50 (rat, strain Wistar, males, inhaled, site: liver, lesion: cholangioma, dosed 78 weeks, study length 157 weeks) 3.97 mg/kg/day | TD50 (rat, strain Wistar, males, inhaled, site: liver, lesion: hepatocellular adenoma, dosed 78 weeks, study length 157 weeks) 12.9 mg/kg/day
2.73 mg/kg/day: TD50 (mouse, strain NMRI, females, inhaled, site: lung, lesion: adenoma, dosed 78 weeks, study length 119 weeks)

O=[N+]([O-])c1ccc(-c2nc(N(CCO)CCO)c3ccccc3n2)s1
3.6 mg/kg/day: TD50 (rat, strain Sprague-Dawley, males, in feed, site: small intestine, lesion: leiomyosarcoma, dosed 50 weeks, study length 52 weeks)
active: TD50 (rat, strain Sprague-Dawley, males, in feed, site: mammary gland, lesion: adenocarcinoma, dosed 50 weeks, study length 52 weeks) 11.5 mg/kg/day | TD50 (rat, strain Sprague-Dawley, males, in feed, site: mammary gland, lesion: several types, types named in the paper, dosed 50 weeks, study length 52 weeks) 6.45 mg/kg/day | TD50 (rat, strain Sprague-Dawley, males, in feed, site: small intestine, lesion: sarcoma, dosed 50 weeks, study length 52 weeks) 3.14 mg/kg/day
1.1 mg/kg/day: TD50 (rat, strain Sprague-Dawley, males, in feed, site: any site (literature study), lesion: several types, types named in the paper, dosed 50 weeks, study length 52 weeks)

CN(N=O)c1cccnc1
inactive: carcinogen call (rat, strain BD VI, females, by gavage, site: any site (literature study), lesion: benign tumor, dosed 116 weeks, study length 116 weeks) negative | TD50 (rat, strain BD VI, females, by gavage, site: any site (literature study), lesion: malignant tumor, dosed 116 weeks, study length 116 weeks) 6.09 mg/kg/day | carcinogen call (rat, strain BD VI, females, by gavage, site: any site (literature study), lesion: several types, types named in the paper, dosed 116 weeks, study length 116 weeks) negative | carcinogen call (rat, strain BD VI, females, by gavage, site: liver, lesion: several types, types named in the paper, dosed 116 weeks, study length 116 weeks) negative

Cn1cc(OCC(O)CNC(C)(C)C)c2ccccc2c1=O (stereo unspecified)
inactive: carcinogen call (mouse, strain Charles River CD1, females, by gavage, site: any site (literature study), lesion: several types, types named in the paper, dosed 80 weeks, study length 80 weeks) negative | carcinogen call (mouse, strain Charles River CD1, females, by gavage, site: liver, lesion: one or several types, types not named, dosed 80 weeks, study length 80 weeks) negative | carcinogen call (mouse, strain Charles River CD1, females, by gavage, site: lung, lesion: adenocarcinoma, dosed 80 weeks, study length 80 weeks) negative | TD50 (mouse, strain Charles River CD1, females, by gavage, site: lung, lesion: adenoma, dosed 80 weeks, study length 80 weeks) 843 mg/kg/day | TD50 (mouse, strain Charles River CD1, males, by gavage, site: any site (literature study), lesion: several types, types named in the paper, dosed 80 weeks, study length 80 weeks) 256 mg/kg/day | TD50 (mouse, strain Charles River CD1, males, by gavage, site: liver, lesion: hepatocellular adenoma, dosed 80 weeks, study length 80 weeks) 131 mg/kg/day | carcinogen call (mouse, strain Charles River CD1, males, by gavage, site: liver, lesion: hepatocellular carcinoma, dosed 80 weeks, study length 80 weeks) negative | TD50 (mouse, strain Charles River CD1, males, by gavage, site: lung, lesion: adenocarcinoma, dosed 80 weeks, study length 80 weeks) 99.2 mg/kg/day | TD50 (mouse, strain Charles River CD1, males, by gavage, site: lung, lesion: adenoma, dosed 80 weeks, study length 80 weeks) 7200 mg/kg/day | TD50 (rat, strain Charles River CD (Sprague-Dawley), females, by gavage, site: any site (literature study), lesion: several types, types named in the paper, dosed 104 weeks, study length 104 weeks) 40 mg/kg/day | carcinogen call (rat, strain Charles River CD (Sprague-Dawley), females, by gavage, site: liver, lesion: hepatocellular adenoma, dosed 104 weeks, study length 104 weeks) negative | TD50 (rat, strain Charles River CD (Sprague-Dawley), males, by gavage, site: any site (literature study), lesion: several types, types named in the paper, dosed 104 weeks, study length 104 weeks) 128 mg/kg/day | TD50 (rat, strain Charles River CD (Sprague-Dawley), males, by gavage, site: liver, lesion: hepatocellular adenoma, dosed 104 weeks, study length 104 weeks) 384 mg/kg/day | carcinogen call (rat, strain Charles River CD (Sprague-Dawley), males, by gavage, site: liver, lesion: hepatocellular carcinoma, dosed 104 weeks, study length 104 weeks) negative

Nc1nc(-c2ccc([N+](=O)[O-])o2)cs1
11.5 mg/kg/day: TD50 (mouse, strain Swiss, females, in feed, site: forestomach, lesion: squamous-cell papilloma, dosed 46 weeks, study length 55 weeks)
8.94 mg/kg/day: TD50 (rat, strain Fischer, females, in feed, site: forestomach, lesion: squamous-cell papilloma, dosed 52 weeks, study length 68 weeks)
6.83 mg/kg/day: TD50 (mouse, strain Swiss, females, in feed, site: any site (literature study), lesion: several types, types named in the paper, dosed 46 weeks, study length 55 weeks)
active: TD50 (mouse, strain Swiss, females, in feed, site: forestomach, lesion: several types, types named in the paper, dosed 46 weeks, study length 55 weeks) 7.87 mg/kg/day | TD50 (rat, strain Fischer, females, in feed, site: forestomach, lesion: several types, types named in the paper, dosed 52 weeks, study length 68 weeks) 5.85 mg/kg/day | TD50 (rat, strain Fischer, females, in feed, site: urinary bladder, lesion: several types, types named in the paper, dosed 52 weeks, study length 68 weeks) 30.3 mg/kg/day

C=CC=O
433 mg/kg/day: TD50 (rat, strain Fischer 344, females, in drinking water, site: liver, lesion: hepatocellular carcinoma, dosed 104 weeks, study length 132 weeks)
214 mg/kg/day: TD50 (rat, strain Sprague-Dawley, females, by gavage, site: liver, lesion: hepatocellular adenoma, dosed 104 weeks, study length 104 weeks)
5.53 mg/kg/day: TD50 (rat, strain Sprague-Dawley, females, by gavage, site: adrenal gland, lesion: pheochromocytoma, dosed 104 weeks, study length 104 weeks)
93.9 mg/kg/day: TD50 (rat, strain Fischer 344, females, in drinking water, site: adrenal gland, lesion: cortical adenoma, dosed 104 weeks, study length 132 weeks)
57.7 mg/kg/day: TD50 (rat, strain Sprague-Dawley, males, by gavage, site: adrenal gland, lesion: cortical carcinoma, dosed 104 weeks, study length 104 weeks)
0.471 mg/kg/day: TD50 (rat, strain Sprague-Dawley, males, by gavage, site: adrenal gland, lesion: cortical adenoma, dosed 104 weeks, study length 104 weeks)
188 mg/kg/day: TD50 (rat, strain Fischer 344, females, in drinking water, site: liver, lesion: several types, types named in the paper, dosed 104 weeks, study length 132 weeks)
1320 mg/kg/day: TD50 (rat, strain Fischer 344, males, in drinking water, site: liver, lesion: hepatocellular carcinoma, dosed 117 weeks, study length 132 weeks)
inactive: carcinogen call (mouse, strain Charles River CD1, females, by gavage, site: liver, lesion: hepatocellular adenoma, dosed 78 weeks, study length 78 weeks) negative | carcinogen call (mouse, strain Charles River CD1, females, by gavage, site: lung, lesion: alveolar/bronchiolar adenoma, dosed 78 weeks, study length 78 weeks) negative | TD50 (mouse, strain Charles River CD1, females, by gavage, site: lung, lesion: alveolar/bronchiolar carcinoma, dosed 78 weeks, study length 78 weeks) 90.3 mg/kg/day | carcinogen call (mouse, strain Charles River CD1, males, by gavage, site: liver, lesion: hepatocellular adenoma, dosed 78 weeks, study length 78 weeks) negative | carcinogen call (mouse, strain Charles River CD1, males, by gavage, site: liver, lesion: hepatocellular carcinoma, dosed 78 weeks, study length 78 weeks) negative | TD50 (mouse, strain Charles River CD1, males, by gavage, site: lung, lesion: alveolar/bronchiolar adenoma, dosed 78 weeks, study length 78 weeks) 526 mg/kg/day | TD50 (mouse, strain Charles River CD1, males, by gavage, site: lung, lesion: alveolar/bronchiolar carcinoma, dosed 78 weeks, study length 78 weeks) 62.6 mg/kg/day
14.4 mg/kg/day: TD50 (rat, strain Fischer 344, males, in drinking water, site: forestomach, lesion: one or several types, types not named, dosed 117 weeks, study length 132 weeks)
24.7 mg/kg/day: TD50 (rat, strain Sprague-Dawley, males, by gavage, site: liver, lesion: hepatocellular adenoma, dosed 104 weeks, study length 104 weeks)
388 mg/kg/day: TD50 (rat, strain Fischer 344, females, in drinking water, site: liver, lesion: hyperplastic nodule, dosed 104 weeks, study length 132 weeks)
